{
  "source": "patent US20160030438A1",
  "about": "“ANTI-TUMORAL COMPOSITION COMPRISING A PI3KBETA INHIBITOR AND A RAF INHIBITOR, TO OVERCOME CANCER CELLS RESISTANCE” (SANOFI, priority 2013, published 2016)",
  "key": {"[1]": {"tested_on": "human melanoma cell line WM-266-4", "assay": "In vitro anti-proliferative activity (CelltiterGlo, ray design) in WM-266-4, example 1", "format": "cell-based", "method": "Prior to in vitro combination studies, the activity of individual agents was investigated using WM-266-4 cell line. The purpose of testing individual agents was to determine the independence of their action and to determine the dilution design of the Fixed Ratio Drug Combination assay.\n(§1) The human melanoma WM-266-4 cell line was purchased at ATCC (Ref number CRL-1676 Batch 3272826). The WM-266-4 cells were cultured in RPMI1640 medium supplemented with 10% FBS and 2 mM L-Glutamine.\nThey were diluted serially, in DMSO following a 3 or 3.3-fold dilution step in order to obtain 10 mM to 0.03 μM solutions: then each solution was diluted 50-fold in culture medium containing 10% serum before being added onto cells with a 20-fold dilution factor. The final concentrations tested were defined by a Ray design which allows characterizing the interaction of the two compounds for several fixed proportions in the mixture. The ray design used for this experiment includes one ray for each single agent and 4 combination rays. All rays have 10 concentrations (see Table 1). The DMSO concentration was 0.1% in controls and in all treated wells.\nWM-266-4 cells were plated at 2500 cells/well in 96-well plates in appropriate culture medium and incubated for 6 hours at 37° C., 5% CO2. […] Cell growth was evaluated by measuring intracellular ATP using CelltiterGlo® reagent (Promega) according to the manufacturer's protocol. Briefly, CellTiterGlo® was added to each plate, incubated for 1 hour then luminescent signal was read on the MicroBeta Luminescent plate reader. Three experiments have been performed on the cell line. For each experiment, two 96-well plates are used allowing working with duplicates.\nInhibition of cell growth was estimated after treatment with one compound or the combination of compounds for four days and comparing the signal to cells treated with vehicle (DMSO).\nGrowth inhibition percentage (GI %) was calculated according to the following equation:\nGI %=100*(1−((X−BG)/(TC−BG)) […]"}, "[2]": {"tested_on": "human melanoma cell line WM-266-4", "assay": "In vitro pro-apoptotic activity (PARP cleavage western blot) in WM-266-4, example 2", "format": "cell-based", "conditions": "for PARP cleavage signal (AU-BG): single agent 10 000 nM, 24 hours, WM-266-4, example 2", "method": "The characterization of the interaction between compound (I) and compound (II) was studied using western blotting method measuring the expression of cleaved PARP which allows to investigate apoptosis by detecting the cleavage of the PARP protein.\nas §1\nThey were diluted following a 10 fold step dilution in DMSO in order to obtain a 1 mM solution. Then each solution at 10 mM and 1 mM was diluted 50-fold in culture medium containing 10% serum before being added onto cells with a 20-fold dilution factor to reach final concentrations of 10,000 nM and 1,000 nM. The final DMSO concentration was 0.1% in controls and in all treated wells.\nWM-266-4 cells were seeded into 6-well microplates at 1 000 000 cells per well, in complete culture medium and incubated at 37° C., 5% CO2, overnight.\nAt the end of cell treatment period, adherent cells as well as cells in the cell culture supernatant were lysed for the preparation of the proteins. Cells were lysed in a lysis buffer containing Hepes 50 mM, NaCl 150 mM, Glycerol 10%, Triton 1%, pH=7.5, adding extemporaneously a cocktail of protease and phosphatase inhibitors diluted 100 fold. Protein concentrations in each sample were determined using microBCA technique according to manufacturer's instructions. Western blotting was performed loading 20 μg of proteins in each gel well, and according to the operating procedure. […] After western blotting revelation according to the operating procedure instructions, luminescence was read using FujiFilm (Ray Test) apparatus.\nThis instrument measures the total signal of luminescence obtained on Fujifilm machine (AU) for each selected band. Then, it subtracts the background value (BG) proportional to the size of the selected band or Area. The background is calculated from a band taken on the specific background of the western blot, to obtain the specific signal or (AU−BG) for each band. The calculation of the fold induction is performed for each treatment with compound or combination of compounds using the following formula:\nFold Induction=((AU−BG)t/(AU−BG)st)*100"}, "BRAF mutated melanoma": {"tested_on": "BRAF mutated melanoma", "conditions": "phase I trial; cited from earlier work"}, "PI3Kβ isoform": {"molecular_target": "PI3Kβ isoform (Homo sapiens, UniProt P42338)", "sequence (P42338 whole entry, canonical isoform)": "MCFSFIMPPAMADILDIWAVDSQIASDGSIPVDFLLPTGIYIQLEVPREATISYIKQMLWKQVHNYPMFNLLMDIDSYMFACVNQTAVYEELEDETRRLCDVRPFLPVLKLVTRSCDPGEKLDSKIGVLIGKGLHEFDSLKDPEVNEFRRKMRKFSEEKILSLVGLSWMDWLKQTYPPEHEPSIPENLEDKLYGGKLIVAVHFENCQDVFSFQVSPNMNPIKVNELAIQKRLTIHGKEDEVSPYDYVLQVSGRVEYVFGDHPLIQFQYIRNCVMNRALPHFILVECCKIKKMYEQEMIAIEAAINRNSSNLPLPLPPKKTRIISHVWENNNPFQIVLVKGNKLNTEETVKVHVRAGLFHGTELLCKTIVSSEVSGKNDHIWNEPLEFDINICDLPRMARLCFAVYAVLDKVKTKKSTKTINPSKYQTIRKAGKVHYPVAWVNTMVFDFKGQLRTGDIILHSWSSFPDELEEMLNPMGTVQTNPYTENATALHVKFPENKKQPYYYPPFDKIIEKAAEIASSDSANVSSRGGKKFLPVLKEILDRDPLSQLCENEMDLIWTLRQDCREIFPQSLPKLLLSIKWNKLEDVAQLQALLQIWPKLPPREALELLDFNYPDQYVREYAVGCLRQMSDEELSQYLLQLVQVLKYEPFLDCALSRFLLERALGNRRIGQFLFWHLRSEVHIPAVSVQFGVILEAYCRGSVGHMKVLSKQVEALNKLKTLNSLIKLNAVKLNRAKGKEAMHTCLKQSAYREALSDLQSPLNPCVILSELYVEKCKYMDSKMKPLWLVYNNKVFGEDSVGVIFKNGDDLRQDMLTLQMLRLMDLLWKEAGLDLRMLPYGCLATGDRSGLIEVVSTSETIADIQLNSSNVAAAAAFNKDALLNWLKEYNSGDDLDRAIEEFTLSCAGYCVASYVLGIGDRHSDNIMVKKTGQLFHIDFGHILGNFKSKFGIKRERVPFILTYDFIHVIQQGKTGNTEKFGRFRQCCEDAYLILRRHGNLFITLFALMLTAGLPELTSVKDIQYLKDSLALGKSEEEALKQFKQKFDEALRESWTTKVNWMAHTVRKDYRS", "sequence (P27986 whole entry partner, canonical isoform)": "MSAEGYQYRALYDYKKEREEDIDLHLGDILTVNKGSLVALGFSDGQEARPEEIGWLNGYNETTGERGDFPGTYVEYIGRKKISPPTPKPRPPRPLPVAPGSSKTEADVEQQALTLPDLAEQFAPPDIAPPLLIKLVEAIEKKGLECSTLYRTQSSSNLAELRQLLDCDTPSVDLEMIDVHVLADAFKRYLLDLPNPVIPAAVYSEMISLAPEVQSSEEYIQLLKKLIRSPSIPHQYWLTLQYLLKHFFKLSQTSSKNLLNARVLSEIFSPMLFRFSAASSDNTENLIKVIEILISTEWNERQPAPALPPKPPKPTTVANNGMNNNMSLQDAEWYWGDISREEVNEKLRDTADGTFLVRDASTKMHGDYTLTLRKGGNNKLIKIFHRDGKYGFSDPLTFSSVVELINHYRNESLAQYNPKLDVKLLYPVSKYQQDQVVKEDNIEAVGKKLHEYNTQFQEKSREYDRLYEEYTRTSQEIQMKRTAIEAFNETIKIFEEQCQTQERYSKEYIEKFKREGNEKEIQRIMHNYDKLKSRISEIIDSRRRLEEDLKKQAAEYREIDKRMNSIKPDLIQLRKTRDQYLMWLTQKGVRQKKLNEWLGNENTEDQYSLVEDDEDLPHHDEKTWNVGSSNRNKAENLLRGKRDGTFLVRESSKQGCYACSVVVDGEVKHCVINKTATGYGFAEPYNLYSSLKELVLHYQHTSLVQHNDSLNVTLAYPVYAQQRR", "assay": "PI3Kβ biochemical assay", "conditions": "biochemical assays"}, "PI3Kdelta [3]": {"molecular_target": "T1, PI3Kdelta (Homo sapiens, UniProt O00329)", "assay": "PI3Kdelta biochemical assay", "conditions": "biochemical assays"}, "PI3Kgamma [4]": {"molecular_target": "PI3Kgamma (Homo sapiens, UniProt P48736)", "assay": "PI3Kgamma biochemical assay", "conditions": "biochemical assays"}, "mTOR": {"molecular_target": "mTOR (Homo sapiens, UniProt P42345)", "assay": "mTOR inhibition", "format": "biochemical", "conditions": "up to 10 μM"}, "VPS34 lipid kinase": {"molecular_target": "VPS34 lipid kinase (Homo sapiens, UniProt Q8NEB9)", "sequence (Q8NEB9 whole entry)": "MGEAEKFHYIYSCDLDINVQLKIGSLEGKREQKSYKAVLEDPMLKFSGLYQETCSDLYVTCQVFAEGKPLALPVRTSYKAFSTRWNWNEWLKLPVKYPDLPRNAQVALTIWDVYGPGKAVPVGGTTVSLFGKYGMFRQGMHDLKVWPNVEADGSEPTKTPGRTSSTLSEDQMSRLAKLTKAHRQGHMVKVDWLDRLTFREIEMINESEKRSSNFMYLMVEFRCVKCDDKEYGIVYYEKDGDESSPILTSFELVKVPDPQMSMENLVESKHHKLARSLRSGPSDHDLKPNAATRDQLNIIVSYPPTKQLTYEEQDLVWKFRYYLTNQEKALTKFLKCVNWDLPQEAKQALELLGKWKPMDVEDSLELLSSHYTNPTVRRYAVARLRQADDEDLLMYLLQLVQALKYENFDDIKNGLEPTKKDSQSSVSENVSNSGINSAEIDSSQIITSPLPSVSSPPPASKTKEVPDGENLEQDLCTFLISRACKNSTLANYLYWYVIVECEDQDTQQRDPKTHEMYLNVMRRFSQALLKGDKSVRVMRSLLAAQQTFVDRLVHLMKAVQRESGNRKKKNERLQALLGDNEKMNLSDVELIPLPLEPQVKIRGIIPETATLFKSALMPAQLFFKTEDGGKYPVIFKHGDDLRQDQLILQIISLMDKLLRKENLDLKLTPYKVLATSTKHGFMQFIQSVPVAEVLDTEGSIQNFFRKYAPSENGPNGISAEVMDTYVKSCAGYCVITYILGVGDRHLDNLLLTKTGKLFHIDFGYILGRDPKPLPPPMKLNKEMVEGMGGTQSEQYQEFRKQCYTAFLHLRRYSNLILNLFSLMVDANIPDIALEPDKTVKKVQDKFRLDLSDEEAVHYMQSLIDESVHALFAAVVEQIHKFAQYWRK", "assay": "Profiling against panel of more than 400 lipid and protein kinases (VPS34)", "conditions": "biochemical"}, "VPS34": {"molecular_target": "VPS34 (Homo sapiens, UniProt Q8NEB9)", "sequence (Q8NEB9 whole entry, species assumed)": "as the sequence (Q8NEB9 whole entry) above", "assay": "Functional VPS34 cellular assay", "format": "cell-based"}, "PI3Kβ": {"molecular_target": "PI3Kβ (Homo sapiens, UniProt P42338)", "sequence (P42338 whole entry, species assumed)": "as the sequence (P42338 whole entry, canonical isoform) above", "sequence (P26450 whole entry partner, species assumed)": "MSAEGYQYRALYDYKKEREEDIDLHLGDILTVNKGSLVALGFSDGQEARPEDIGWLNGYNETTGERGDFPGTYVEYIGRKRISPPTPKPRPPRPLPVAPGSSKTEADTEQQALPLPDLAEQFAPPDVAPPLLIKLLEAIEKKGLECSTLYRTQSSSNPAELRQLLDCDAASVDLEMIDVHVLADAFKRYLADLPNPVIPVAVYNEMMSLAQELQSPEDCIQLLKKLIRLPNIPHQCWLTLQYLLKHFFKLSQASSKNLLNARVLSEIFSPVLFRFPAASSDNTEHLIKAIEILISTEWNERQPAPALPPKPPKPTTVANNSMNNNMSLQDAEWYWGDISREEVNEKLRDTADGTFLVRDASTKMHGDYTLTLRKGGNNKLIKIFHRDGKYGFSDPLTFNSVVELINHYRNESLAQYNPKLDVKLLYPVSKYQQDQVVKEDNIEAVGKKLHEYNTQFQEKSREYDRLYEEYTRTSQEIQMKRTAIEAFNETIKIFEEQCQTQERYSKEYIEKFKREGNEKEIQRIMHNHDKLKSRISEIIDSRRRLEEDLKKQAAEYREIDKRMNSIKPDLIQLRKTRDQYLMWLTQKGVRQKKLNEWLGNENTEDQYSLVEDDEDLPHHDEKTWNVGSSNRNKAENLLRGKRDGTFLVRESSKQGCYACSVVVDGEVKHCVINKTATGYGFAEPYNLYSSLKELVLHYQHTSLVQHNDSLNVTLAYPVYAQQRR", "assay": "Inhibition of AKT phosphorylation (pAkt-S473) in MEF-3T3-myr p110β mouse fibroblasts", "format": "cell-based", "conditions": "pAkt-S473, MEF-3T3-myr p110β; read-out: IC50 on PI3Kβ in the PI3Kβ-dependent cell line"}, "PI3Kdelta [5]": {"molecular_target": "T1, PI3Kdelta", "assay": "Inhibition of AKT phosphorylation (pAkt-S473) in MEF-3T3-myr p110δ mouse fibroblasts", "format": "cell-based", "conditions": "pAkt-S473, MEF-3T3-myr p110δ; read-out: IC50 on PI3Kdelta in cells"}, "PI3Kgamma [6]": {"molecular_target": "T2, PI3Kgamma (Mus musculus, UniProt Q9JHG7)", "T2 construct": "RAW 264.7 mouse macrophages (after stimulation of AKT phosphorylation by C5a) for PI3Kgamma; endogenous in cells; host or cells: RAW 264.7 mouse macrophages", "T2 sequence (Q9JHG7 whole entry)": "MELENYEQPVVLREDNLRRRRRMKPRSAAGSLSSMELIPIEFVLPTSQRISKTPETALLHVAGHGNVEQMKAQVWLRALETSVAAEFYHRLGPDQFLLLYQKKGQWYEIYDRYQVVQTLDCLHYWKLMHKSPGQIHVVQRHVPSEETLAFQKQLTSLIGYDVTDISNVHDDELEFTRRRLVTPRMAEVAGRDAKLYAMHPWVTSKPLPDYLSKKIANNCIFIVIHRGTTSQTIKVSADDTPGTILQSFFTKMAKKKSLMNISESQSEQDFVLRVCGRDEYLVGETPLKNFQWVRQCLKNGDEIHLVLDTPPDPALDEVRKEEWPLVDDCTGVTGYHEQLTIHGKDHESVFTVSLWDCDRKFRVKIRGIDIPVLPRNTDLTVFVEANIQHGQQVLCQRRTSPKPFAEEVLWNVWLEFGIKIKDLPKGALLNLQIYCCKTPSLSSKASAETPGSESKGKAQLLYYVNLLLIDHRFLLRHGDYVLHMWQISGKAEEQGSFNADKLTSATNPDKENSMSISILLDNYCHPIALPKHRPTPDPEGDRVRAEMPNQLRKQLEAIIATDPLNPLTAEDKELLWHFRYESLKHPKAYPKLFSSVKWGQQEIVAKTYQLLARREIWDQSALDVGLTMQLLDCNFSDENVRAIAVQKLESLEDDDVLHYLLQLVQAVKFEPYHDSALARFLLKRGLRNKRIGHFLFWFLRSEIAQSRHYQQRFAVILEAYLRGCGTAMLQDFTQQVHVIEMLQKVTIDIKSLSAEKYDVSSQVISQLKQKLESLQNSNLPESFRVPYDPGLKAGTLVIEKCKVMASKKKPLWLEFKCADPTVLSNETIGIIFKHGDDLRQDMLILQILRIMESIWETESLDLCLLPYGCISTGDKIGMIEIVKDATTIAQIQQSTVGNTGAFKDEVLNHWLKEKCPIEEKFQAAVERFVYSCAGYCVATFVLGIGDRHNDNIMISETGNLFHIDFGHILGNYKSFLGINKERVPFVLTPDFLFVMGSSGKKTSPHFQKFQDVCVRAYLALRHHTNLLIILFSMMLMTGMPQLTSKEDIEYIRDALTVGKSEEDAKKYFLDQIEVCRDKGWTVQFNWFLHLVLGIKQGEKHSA", "assay": "Inhibition of AKT phosphorylation (pAkt-S473) in RAW 264.7 mouse macrophages after C5a stimulation", "format": "cell-based", "conditions": "pAkt-S473, RAW 264.7, C5a; read-out: IC50 on PI3Kgamma in cells"}},
  "note": "Values joined by “and” are separate entries in the source; they are usually repeats but may differ in a detail not shown here. Equal values may be shown once.",
  "data": [
    {"smiles": "CCCS(=O)(=O)Nc1ccc(F)c(C(=O)c2c[nH]c3ncc(-c4ccc(Cl)cc4)cc23)c1F", "note": "[Compound (II), 1-Propanesulfonamide,N-[3-[[5-(4-chlorophenyl)-1H-pyrrolo[2,3-b]pyridin-3-yl]carbonyl]-2,4-difluorophenyl]]", "values": [
      {"measurement": "IC50", "setting": "[1]; Homo sapiens, WM 266-4, approximately, read-out: IC50 with WM-266-4 sensitive cancer cells", "result": "~84", "unit": "nM"},
      {"measurement": "Absolute IC40s", "setting": "[1]; single agent, WM-266-4, 96 hours, example 1", "result": "35 nM and 34.9 nM"},
      {"measurement": "IC40, antiproliferative effect, WM-266-4", "setting": "[1]; single agent, approximately", "result": "~60", "unit": "nM"},
      {"measurement": "Fold induction of PARP cleavage", "setting": "[2]; human, WM-266-4 melanoma cells (BRAF mutant, PTEN-deficient), 24 h, 10000 nM", "result": 1.38, "unit": "fold"},
      {"measurement": "PARP cleavage signal (AU-BG)", "setting": "[2]", "result": 982219, "unit": "AU-BG"},
      {"measurement": "patients with at least 30% tumor shrinkage by RECIST", "setting": "BRAF mutated melanoma", "result": 81, "unit": "%"}
    ]},
    {"smiles": "C[C@H]1Cc2ccccc2N1C(=O)Cc1nc(N2CCOCC2)cc(=O)[nH]1", "note": "[Compound (I), 2-{2-[(2S)-2-methyl-2,3-dihydro-1H-indol-1-yl]-2-oxoethyl}-6-(morpholin-4-yl)pyrimidin-4(3H)-one]", "values": [
      {"measurement": "IC50", "setting": "PI3Kβ isoform", "result": 65, "unit": "nM"},
      {"measurement": "IC50", "setting": "PI3Kdelta [3]", "result": 465, "unit": "nM"},
      {"measurement": "IC50", "setting": "PI3Kgamma [4]", "result": "> 10000", "unit": "nM"},
      {"measurement": "mTOR inhibition", "setting": "mTOR", "result": "not inhibit mTOR"},
      {"measurement": "IC50", "setting": "VPS34 lipid kinase", "result": 180, "unit": "nM"},
      {"measurement": "IC50", "setting": "VPS34", "result": "> 10000", "unit": "nM"},
      {"measurement": "IC50", "setting": "PI3Kβ", "result": 32, "unit": "nM"},
      {"measurement": "IC50", "setting": "PI3Kdelta [5]", "result": 823, "unit": "nM"},
      {"measurement": "IC50", "setting": "PI3Kgamma [6]", "result": "> 3000", "unit": "nM"},
      {"measurement": "PARP cleavage signal (AU-BG)", "setting": "[2]", "result": 509366, "unit": "AU-BG"}
    ]}
  ]
}
